# What was measured:
# [1] = tested on: knock-out mutant of spm1 in Mhk1-Spm1 pathway (TZs69); experiment: Growth (cell number) of spm1 knock-out mutant; assay type: cell-based, Schizosaccharomyces pombe
# Method: (§1) To investigate the effect of protoberberine derivatives on the growth of cells, the cells of each strain were cultured in rich medium YE^AU to exponential phase(5×10^7 cells/mL). These cells were transferred to YE^AU medium and cultured for 12 hours. Then cell number was measured every 3 hours.
# [2] = tested on: knock-out mutant of spc1 (KS1366); experiment: Growth (cell number) of spc1 knock-out mutant; assay type: cell-based, Schizosaccharomyces pombe; conditions: for inhibition of the knock-out mutant of spc1 (in words): table 6
# Method: To investigate the effect of protoberberine derivatives on the growth of cells, the cells of each strain were cultured in rich medium YE^AU to exponential phase(5×10^7 cells/mL). […] Then cell number was measured every 3 hours.
# [3] = tested on: knock-out mutant of wis4 (ED1292); experiment: Growth (cell number) of wis4 knock-out mutant; assay type: cell-based, Schizosaccharomyces pombe; conditions: Table 8, wis4 knock-out
# Method: as §1
# (§2) The knock-out mutant of win1 and wis4 was cultured and treated with 13-(4-t-butylbenzyl)berberine chloride, 13-(4-(t-butyldimethylsilyloxy)benzyl)berberine chloride or 2,3,9,10-tetrapropoxyprotoberberine iodide of the compounds 13-benzylberberine iodide, 13-(4-chloro benzyl)berberine iodide, 13-(3-bromobenzyl)berberine iodide, 13-(2,3-dichlorobenzyl)berberine chloride, 13-(2-chloro-6-fluorobenzyl)berberine chloride, 13-(4-fluoro-2-trifluoromethylbenzyl)berberine chloride, 13-(2,3,4,5,6-pentafluorobenzyl)berberine chloride, 13-(2,3,5,6-tetra fluoro-4-trifluoromethylbenzyl)berberine chloride, 13-(4-methylbenzyl)berberine chloride, 13-(2,4-dimethylbenzyl) berberine chloride, 13-(4-methyl-3-nitrobenzyl)berberine chloride, 13-(3-trifluoromethylbenzyl)berberine chloride, 13-(4-methoxybenzyl)berberine chloride, 13-(4-trifluoro methoxybenzyl)berberine chloride, 13-(4-methoxycarbonyl benzyl)berberine chloride, 13-(4-t-butylbenzyl)berberine chloride, 13-(4-1-propylbenzyl) berberine chloride, 13-(4-(t-butyldimethylsilyloxy)benzyl) berberine chloride, 13-(4-t-butylbenzyl)palmatine iodide, 13-(4-(t-butyldimethyl silyloxy)benzyl)palmatine chloride and 2,3,9,10-tetra propoxyprotoberberine iodide.
# [4] = tested on: knock-out mutant of byr2 in Ras-Byr2 pathway (SPSU); experiment: Growth (cell number) of byr2 knock-out mutant; assay type: cell-based, Schizosaccharomyces pombe
# Method: as §1
# [5] = tested on: knock-out mutant of wis1 (JM544); experiment: Growth (cell number) of wis1 knock-out mutant; assay type: cell-based, Schizosaccharomyces pombe; conditions: for inhibition of the activity of Wis1 kinase, concluded from effects on knock-out mutants: conclusion from growth of knock-out mutants; for inhibition of the knock-out mutant of wis1 (in words): table 5
# Method: To investigate the effect of protoberberine derivatives on the growth of cells, the cells of each strain were cultured in rich medium YE^AU to exponential phase(5×10^7 cells/mL). […]
# [6] = tested on: knock-out mutant of win1 (ED1388); experiment: Growth (cell number) of win1 knock-out mutant; assay type: cell-based, Schizosaccharomyces pombe; conditions: Table 7, win1 knock-out
# Method: as §1, §2
# [7] = tested on: KGY246 cells, wild type Saccharomyces pombe; experiment: Minimum inhibitory concentration (MIC) on Schizosaccharomyces pombe; assay type: cell-based; conditions: YE^AU medium; minimal concentration at which cell number stayed constant; 10% ethanol as solvent
# Method: Measurement of Minimum Inhibitory Concentration(MIC) of Protoberberine Derivatives on Schizosaccharomyces pombe
# KGY246 cells, wild type Saccharomyces pombe, were cultured in rich media YE^AU (yeast extract, peptone, malt extract, dextrose, agar: pH 6.2)containing 0.75 mg/L adenine and uracil to exponential phase. To determine minimum inhibitory concentration of each protoproberberine derivative, cells in exponential phase were transferred to YE^AU medium containing variable concentrations of protoberberine derivatives and cell number was measured every 3 hour. Thereafter, the minimal concentration on which cell number was maintained constantly was determined as minimum inhibitory concentration. The minimum inhibitory concentrations of protoberberine derivatives 13-(4-t-butylbenzyl)berberine chloride, 13-(4-(t-butyldimetylsilyloxy)benzyl)berberine chloride and 2,3,9,10-tetrapropoxyprotoberberine iodide of the present invention were 20 ug/mL, 7 ug/mL and 20 ug/mL respectively. To minimize inhibition by solvent itself, 10% ethanol was used as a solvent of protoberberine derivatives. The processes of cell culture and measurement of cell number described above were repeated using 13-benzylberberine iodide, 13-(4-chlorobenzyl)berberine iodide, 13-(3-bromobenzyl)berberine iodide, 13-(2,3-dichlorobenzyl) berberine chloride, 13-(2-chloro-6-fluorobenzyl)berberine chloride, 13-(4-fluoro-2-trifluoromethylbenzyl)berberine chloride, 13-(2,3,4,5,6-pentafluorobenzyl)berberine chloride, 13-(2,3,5,6-tetrafluoro-4-trifluoromethylbenzyl) berberine chloride, 13-(4-methylbenzyl)berberine chloride, 13-(2,4-dimethylbenzyl)berberine chloride, 13-(4-methyl-3-nitrobenzyl)berberine chloride, 13-(3-trifluoromethyl benzyl)berberine chloride, 13-(4-methoxybenzyl)berberine chloride, 13-(4-trifluoromethoxybenzyl)berberine chloride, 13-(4-methoxycarbonylbenzyl)berberine chloride, 13-(4-i-propylbenzyl)berberine chloride. These compounds also had the minimum concentration of inhibition at the concentration of 18-22 ug/mL.
# [8] = Table 4, spm1 knock-out, time 12, miconazole 3 ug/mL
# [9] = Table 4, spm1 knock-out, time 15, miconazole 3 ug/mL
# [10] = Table 4, spm1 knock-out, time 18, miconazole 3 ug/mL
# [11] = Table 4, spm1 knock-out, time 21, miconazole 3 ug/mL
# [12] = Table 4, spm1 knock-out, time 24, miconazole 3 ug/mL
# [13] = Table 6, spc1 knock-out, time 15, miconazole 3 ug/mL
# [14] = Table 6, spc1 knock-out, time 18, miconazole 3 ug/mL
# [15] = Table 6, spc1 knock-out, time 21, miconazole 3 ug/mL
# [16] = Table 6, spc1 knock-out, time 24, miconazole 3 ug/mL
# [17] = Table 3, byr2 knock-out, time 12, miconazole 3 ug/mL
# [18] = Table 3, byr2 knock-out, time 15, miconazole 3 ug/mL
# [19] = Table 3, byr2 knock-out, time 18, miconazole 3 ug/mL
# [20] = Table 3, byr2 knock-out, time 21, miconazole 3 ug/mL
# [21] = Table 3, byr2 knock-out, time 24, miconazole 3 ug/mL
# [22] = Table 5, wis1 knock-out, time 12, miconazole 3 ug/mL
# [23] = Table 5, wis1 knock-out, time 15, miconazole 3 ug/mL
# [24] = Table 5, wis1 knock-out, time 18, miconazole 3 ug/mL
# [25] = Table 5, wis1 knock-out, time 21, miconazole 3 ug/mL
# [26] = Table 5, wis1 knock-out, time 24, miconazole 3 ug/mL
Structure (SMILES),"cell number [1, 8]","cell number [1, 9]","cell number [1, 10]","cell number [1, 11]","cell number [1, 12]","cell number [2, 13]",inhibition of the knock-out mutant of spc1 (in words) [2],cell number ([3]; time 13),cell number ([3]; time 16),cell number ([3]; time 19),cell number ([3]; time 22),cell number ([3]; time 25),"inhibition of the activity of Wis1 kinase, concluded from effects on knock-out mutants [5]",inhibition of the knock-out mutant of wis1 (in words) [5],cell number ([6]; time 13),cell number ([6]; time 16),cell number ([6]; time 19),cell number ([6]; time 22),cell number ([6]; time 25),minimum inhibitory concentration [7] [µg/mL],other results
"CCCOc1cc2c(cc1OCCC)-c1cc3ccc(OCCC)c(OCCC)c3c[n+]1CC2.[I-] [2,3,9,10-tetrapropoxyprotoberberine iodide]",117,4,7,165,228,382,completely inhibited,96,113,265,645,1250,inhibit,not inhibited,102,210,423,750,1575,20,"cell number ([2]; Table 6, spc1 knock-out, time 12, miconazole 3 ug/mL): 201; cell number [2, 14]: 676; cell number [2, 15]: 1232; cell number [2, 16]: 1634; inhibition of the activity of Spc1 kinase, concluded from effects on knock-out mutants ([2]; conclusion from growth of knock-out mutants): inhibit; cell number [4, 17]: 220; cell number [4, 18]: 207; cell number [4, 19]: 185; cell number [4, 20]: 167; cell number [4, 21]: 155; cell number [5, 22]: 164; cell number [5, 23]: 325; cell number [5, 24]: 502; cell number [5, 25]: 1041; cell number [5, 26]: 1574"
COc1ccc2c(Cc3ccc(O[Si](C)(C)C(C)(C)C)cc3)c3[n+](cc2c1OC)CCc1cc2c(cc1-3)OCO2.[Cl-] [13-(4-(t-butyldimethylsilyloxy)benzyl)berberine chloride],,,,,,,not inhibited at all,37,52,25,36,23,inhibit,not inhibited,31,16,16,26,33,7,"cell number ([1]; Table 2, Spm1 knock-out, time 14): 55; cell number ([1]; Table 2, Spm1 knock-out, time 17): 94; cell number ([1]; Table 2, Spm1 knock-out, time 20): 266; cell number ([1]; Table 2, Spm1 knock-out, time 23): 450; cell number ([2]; Table 2, spc1 knock-out, time 14): 57; cell number ([2]; Table 2, spc1 knock-out, time 17): 90; cell number ([2]; Table 2, spc1 knock-out, time 20): 173; cell number ([2]; Table 2, spc1 knock-out, time 23): 210; cell number ([4]; Table 2, byr2 knock-out, time 14): 34; cell number ([4]; Table 2, byr2 knock-out, time 17): 72; cell number ([4]; Table 2, byr2 knock-out, time 20): 156; cell number ([4]; Table 2, byr2 knock-out, time 23): 292; cell number ([5]; Table 2, wis1 knock-out, time 14): 257; cell number ([5]; Table 2, wis1 knock-out, time 17): 665; cell number ([5]; Table 2, wis1 knock-out, time 20): 1355; cell number ([5]; Table 2, wis1 knock-out, time 23): 3100"
COc1ccc2c(Cc3ccc(C(C)(C)C)cc3)c3[n+](cc2c1OC)CCc1cc2c(cc1-3)OCO2.[Cl-] [13-(4-t-butylbenzyl)berberine chloride],89,113,131,118,125,299,partially inhibited,24,45,36,23,19,inhibit,not inhibited,28,26,17,37,13,20,"cell number [2, 14]: 488; cell number [2, 15]: 874; cell number [2, 16]: 1083; cell number [4, 17]: 156; cell number [4, 18]: 150; cell number [4, 19]: 147; cell number [4, 20]: 136; cell number [4, 21]: 128; cell number [5, 22]: 154; cell number [5, 23]: 319; cell number [5, 24]: 538; cell number [5, 25]: 1265; cell number [5, 26]: 1788"
